{"source": "ChEMBL document CHEMBL3217463", "about": "“Design, synthesis and biological evaluation of -lactam hydroxamate based TACE inhibitors” (Medchemcomm, 2011)", "key": {"[1]": {"target": "Stromelysin-1 (Homo sapiens, UniProt P08254)", "sequence (P08254 whole entry)": "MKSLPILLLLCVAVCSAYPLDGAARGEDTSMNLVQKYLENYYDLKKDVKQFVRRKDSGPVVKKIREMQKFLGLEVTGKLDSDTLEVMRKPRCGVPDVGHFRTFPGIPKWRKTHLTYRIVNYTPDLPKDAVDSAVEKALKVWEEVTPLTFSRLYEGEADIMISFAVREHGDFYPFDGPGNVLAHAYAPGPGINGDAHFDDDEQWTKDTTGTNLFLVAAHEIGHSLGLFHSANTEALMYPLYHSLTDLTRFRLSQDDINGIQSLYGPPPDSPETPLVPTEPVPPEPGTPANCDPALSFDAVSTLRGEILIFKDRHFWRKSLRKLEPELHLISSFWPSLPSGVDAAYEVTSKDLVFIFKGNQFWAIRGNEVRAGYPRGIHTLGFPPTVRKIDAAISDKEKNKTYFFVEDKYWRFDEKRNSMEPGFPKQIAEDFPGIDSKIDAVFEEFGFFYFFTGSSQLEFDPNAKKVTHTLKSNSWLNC", "experiment": "Inhibition of MMP3 (unknown origin) by fluorescence-based FRET assay"}, "[2]": {"tested_on": "Rattus norvegicus", "experiment": "Toxicity in Wistar rat assessed as survival at 100 mg/kg, po bid for 28 days", "type": "organism-based", "set-up": "dose 100 mg/kg, route oral", "details": "in vivo, 672 h"}, "[3]": {"target": "T1, Disintegrin and metalloproteinase domain-containing protein 17 (Homo sapiens, UniProt P78536)", "T1 sequence (P78536 whole entry, the tested form may be a part)": "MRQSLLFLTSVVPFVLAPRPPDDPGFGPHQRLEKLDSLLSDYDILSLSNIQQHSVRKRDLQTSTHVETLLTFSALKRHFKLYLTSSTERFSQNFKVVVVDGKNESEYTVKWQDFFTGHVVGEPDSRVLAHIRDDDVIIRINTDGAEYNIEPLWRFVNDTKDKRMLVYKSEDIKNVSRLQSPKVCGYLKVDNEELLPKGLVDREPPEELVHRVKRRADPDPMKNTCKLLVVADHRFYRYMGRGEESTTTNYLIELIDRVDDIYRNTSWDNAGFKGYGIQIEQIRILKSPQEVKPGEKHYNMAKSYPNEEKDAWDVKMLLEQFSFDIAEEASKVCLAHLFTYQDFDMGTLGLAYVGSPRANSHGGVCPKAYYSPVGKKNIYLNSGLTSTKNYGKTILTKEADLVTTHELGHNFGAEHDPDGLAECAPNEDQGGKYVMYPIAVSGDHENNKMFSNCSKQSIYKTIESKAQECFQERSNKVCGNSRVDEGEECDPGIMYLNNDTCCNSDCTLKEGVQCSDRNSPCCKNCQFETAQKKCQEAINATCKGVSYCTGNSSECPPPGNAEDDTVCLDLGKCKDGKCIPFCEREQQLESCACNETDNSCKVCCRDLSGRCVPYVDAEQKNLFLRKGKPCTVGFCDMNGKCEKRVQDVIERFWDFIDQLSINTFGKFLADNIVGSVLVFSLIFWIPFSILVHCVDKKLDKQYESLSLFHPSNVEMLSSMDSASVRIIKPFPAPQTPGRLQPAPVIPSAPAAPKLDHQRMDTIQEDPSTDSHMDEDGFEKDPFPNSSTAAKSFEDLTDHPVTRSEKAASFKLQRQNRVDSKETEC", "experiment": "Ratio of IC50 for human catalytic domain of TACE to IC50 for MMP2 (unknown origin)"}, "[4]": {"tested_on": "Rattus norvegicus", "experiment": "Toxicity in Wistar rat assessed as food consumption at 100 mg/kg, po bid for 28 days", "type": "organism-based", "set-up": "dose 100 mg/kg, route oral", "details": "in vivo, 672 h"}, "[5]": {"tested_on": "Rattus norvegicus", "experiment": "Toxicity in Wistar rat assessed as relative kidney weight at 100 mg/kg, po bid for 28 days (reference value: 0.821 +/- 0.03 %)", "type": "organism-based", "set-up": "dose 100 mg/kg, route oral", "details": "in vivo, 672 h"}, "[6]": {"tested_on": "Rattus norvegicus", "experiment": "Toxicity in Wistar rat assessed as WBC count at 100 mg/kg, po bid for 28 days (reference value: 8.20 +/- 0.33 10^3/ul)", "type": "organism-based", "set-up": "dose 100 mg/kg, route oral", "details": "in vivo, 672 h"}, "[7]": {"target": "T2, Disintegrin and metalloproteinase domain-containing protein 10 (Homo sapiens, UniProt O14672)", "T2 sequence (O14672 whole entry)": "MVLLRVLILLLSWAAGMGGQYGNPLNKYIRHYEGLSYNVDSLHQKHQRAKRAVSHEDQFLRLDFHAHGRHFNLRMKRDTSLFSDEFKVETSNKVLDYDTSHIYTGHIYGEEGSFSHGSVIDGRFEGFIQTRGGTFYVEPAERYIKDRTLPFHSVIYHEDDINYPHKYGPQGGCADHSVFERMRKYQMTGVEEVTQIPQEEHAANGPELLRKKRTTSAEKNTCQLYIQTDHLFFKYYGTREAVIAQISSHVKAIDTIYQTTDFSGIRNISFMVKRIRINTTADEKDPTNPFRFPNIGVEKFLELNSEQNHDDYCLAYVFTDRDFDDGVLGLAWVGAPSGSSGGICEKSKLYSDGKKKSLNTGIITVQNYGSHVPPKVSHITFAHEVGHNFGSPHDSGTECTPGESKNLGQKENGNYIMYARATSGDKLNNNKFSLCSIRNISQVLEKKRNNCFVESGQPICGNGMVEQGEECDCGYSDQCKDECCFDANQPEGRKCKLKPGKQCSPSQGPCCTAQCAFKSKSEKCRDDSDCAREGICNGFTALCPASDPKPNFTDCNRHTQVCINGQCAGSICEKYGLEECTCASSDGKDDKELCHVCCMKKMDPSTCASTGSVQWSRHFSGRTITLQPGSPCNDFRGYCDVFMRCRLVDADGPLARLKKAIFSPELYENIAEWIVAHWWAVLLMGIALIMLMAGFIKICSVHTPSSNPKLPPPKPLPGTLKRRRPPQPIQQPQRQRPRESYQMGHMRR", "experiment": "Inhibition of ADAM10 (unknown origin) using fluorescent substrate by fluorescence-based FRET assay"}, "[8]": {"tested_on": "Rattus norvegicus", "experiment": "Toxicity in Wistar rat assessed as aspartate aminotransferase at 100 mg/kg, po bid for 28 days (reference value: 147.16 +/- 11.75 U/L)", "type": "organism-based", "set-up": "dose 100 mg/kg, route oral", "details": "in vivo, 672 h"}, "[9]": {"target": "T1, Disintegrin and metalloproteinase domain-containing protein 17", "experiment": "Ratio of IC50 for human catalytic domain of TACE to IC50 for ADAM10 (unknown origin)"}, "[10]": {"target": "T1, Disintegrin and metalloproteinase domain-containing protein 17", "experiment": "Ratio of IC50 for human catalytic domain of TACE to IC50 for MMP9 (unknown origin)"}}, "data": [{"smiles": "COCCc1cc(COc2ccc([C@]3(N)CCN([C@H](CC(C)C)C(=O)NO)C3=O)cc2)c2ccccc2n1", "values": [{"measurement": "IC50", "setting": "[1]", "result": 1.02, "unit": "µM"}, {"measurement": "Activity", "setting": "[2]", "result": "Non-toxic"}, {"measurement": "Ratio IC50", "setting": "[3]", "result": "> 500"}, {"measurement": "Activity", "setting": "[4]", "result": "Non-toxic"}, {"measurement": "Activity", "setting": "[5]", "result": 0.878, "unit": "%"}, {"measurement": "Activity", "setting": "[6]", "result": 8.41, "unit": "×10³ /uL"}, {"measurement": "IC50", "setting": "[7]", "result": 1.2, "unit": "µM"}, {"measurement": "Activity", "setting": "[8]", "result": 140.2, "unit": "U/L"}, {"measurement": "Ratio IC50", "setting": "[9]", "result": "> 500"}, {"measurement": "Ratio IC50", "setting": "[10]", "result": "> 500"}]}]}
